From patent US20260097135A1, “MODIFIED ONCOLYTIC HERPES SIMPLEX VIRUS (oHSV) AND METHODS OF USE THEREOF” (The General Hospital Corporation, priority 2022, published 2026)
Entries after “also recorded” stand apart in the source; their conditions may differ.

System: human NK cell line NK-92MI
Experiment: hIL-12 bioactivity: IFN-γ production by NK-92MI cells (ELISA)
Assay type: cell-based
Experimental: HIL12 levels were measured with the human p70 Quantikine ELISA kit (R&D Systems, Bio-Techne, Minneapolis, MN). Functional hIL12 was assessed using human NK cell line NK-92MI (ATCC (CRL-2408)) and hIL-12 induced IFN-γ production. Recombinant hIL12 (R-hIL12; R&D Systems) with known functional activity was used as a positive control. NK-92MI cells were seeded in a 48-well plate at 2×10^4 cells/well. hIL12 produced by virus-infected cells 64 hpi or R-hIL12 was added to NK-92MI cell cultures at the indicated concentrations (with or without 10 μg/ml heparin). HIL12-dependent secretion of IFN-γ into the supernatant was quantified after 24 hrs via ELISA (Human IFN-gamma Quantikine ELISA Kits (R&D systems)).

Row | Molecule | effect of heparin on hIL-12-induced IFN-γ (heparin 10 μg/ml) | hIL-12 induced IFN-γ production by NK-92MI cells (hIL-12 from infected Vero supernatants (64 hpi) or recombinant, 24 hrs)
1 | heparin | greatly enhanced the activity of hIL12; also recorded: synergizes with hIL-12 in stimulating hIFNγ production | –
2 | R-hIL12: recombinant hIL12 (R&D Systems) with known functional activity, positive control (protein, UniProt P29459 23-219; P29460 23-328, looked up) Interleukin-12 subunit alpha: RNLPVATPDPGMFPCLHHSQNLLRAVSNMLQKARQTLEFYPCTSEEIDHEDITKDKTSTVEACLPLELTKNESCLNSRETSFITNGSCLASRKTSFMMALCLSSIYEDLKMYQVEFKTMNAKLLMDPKRQIFLDQNMLAVIDELMQALNFNSETVPQKSSLEEPDFYKTKIKLCILLHAFRIRAVTIDRVMSYLNAS Interleukin-12 subunit beta: IWELKKDVYVVELDWYPDAPGEMVVLTCDTPEEDGITWTLDQSSEVLGSGKTLTIQVKEFGDAGQYTCHKGGEVLSHSLLLLHKKEDGIWSTDILKDQKEPKNKTFLRCEAKNYSGRFTCWWLTTISTDLTFSVKSSRGSSDPQGVTCGAATLSAERVRGDNKEYEYSVECQEDSACPAAEESLPIEVMVDAVHKLKYENYTSSFFIRDIIKPDPPKNLQLKPLKNSRQVEVSWEYPDTWSTPHSYFSLTFCVQVQGKSKREKKDRVFTDKTSATVICRKNASISVRAQDRYYSSSWSEWASVPCS | – | dose-dependent manner
